Two molecules from patent publication US20200239530A1, “COMPOUNDS AND METHODS OF MODULATING PROTEIN DEGRADATION” (Vividion Therapeutics, Inc., priority 2017, published 2020) can be followed below.

Holding throughout (experiment): Cysteine liganding, probe competition
Type in all cases: binding

For assay [1], the target named is T1, ACAA2 3-ketoacyl-CoA thiolase, mitochondrial (Homo sapiens, UniProt P42765).
T1 construct: Cells were resuspended in cold PBS on ice and sonicated with a probe sonicator to achieve lysis; endogenous in cells
T1 sequence (P42765 1-397): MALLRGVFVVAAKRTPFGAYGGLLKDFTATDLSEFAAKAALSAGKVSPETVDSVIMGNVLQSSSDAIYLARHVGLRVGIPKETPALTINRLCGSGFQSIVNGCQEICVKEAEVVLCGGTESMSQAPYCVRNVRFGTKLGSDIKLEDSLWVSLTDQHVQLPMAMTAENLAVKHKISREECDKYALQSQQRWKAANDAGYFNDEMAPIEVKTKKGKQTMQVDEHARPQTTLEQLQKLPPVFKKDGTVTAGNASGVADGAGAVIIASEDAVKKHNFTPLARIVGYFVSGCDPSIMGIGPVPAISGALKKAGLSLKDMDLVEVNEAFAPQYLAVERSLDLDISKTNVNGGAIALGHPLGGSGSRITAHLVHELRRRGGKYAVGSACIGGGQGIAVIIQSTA
In short, it runs like this: (§1)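 Steps: sonicate cells in cold PBS; treat 5 mg/ml lysate with compound (25° C, 1 hr); add desthiobiotin iodoacetamide probe from a 10 mM stock (25° C, 1 hr); precipitate, reduce, alkylate, digest with trypsin; capture labelled peptides on streptavidin for analysis.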

Assay [2] addresses T2, BIRC3 Baculoviral IAP repeat-containing protein 3 (Homo sapiens, UniProt Q13489).
T2 construct: Cells were resuspended in cold PBS on ice and sonicated with a probe sonicator to achieve lysis; endogenous in cells
In short, it runs like this: as §1

The target in assay [3] is T3, NAA15 N-alpha-acetyltransferase 15, NatA auxiliary subun (Homo sapiens, UniProt Q9BXJ9).
T3 construct: Cells were resuspended in cold PBS on ice and sonicated with a probe sonicator to achieve lysis; endogenous in cells
T3 sequence (Q9BXJ9 1-866): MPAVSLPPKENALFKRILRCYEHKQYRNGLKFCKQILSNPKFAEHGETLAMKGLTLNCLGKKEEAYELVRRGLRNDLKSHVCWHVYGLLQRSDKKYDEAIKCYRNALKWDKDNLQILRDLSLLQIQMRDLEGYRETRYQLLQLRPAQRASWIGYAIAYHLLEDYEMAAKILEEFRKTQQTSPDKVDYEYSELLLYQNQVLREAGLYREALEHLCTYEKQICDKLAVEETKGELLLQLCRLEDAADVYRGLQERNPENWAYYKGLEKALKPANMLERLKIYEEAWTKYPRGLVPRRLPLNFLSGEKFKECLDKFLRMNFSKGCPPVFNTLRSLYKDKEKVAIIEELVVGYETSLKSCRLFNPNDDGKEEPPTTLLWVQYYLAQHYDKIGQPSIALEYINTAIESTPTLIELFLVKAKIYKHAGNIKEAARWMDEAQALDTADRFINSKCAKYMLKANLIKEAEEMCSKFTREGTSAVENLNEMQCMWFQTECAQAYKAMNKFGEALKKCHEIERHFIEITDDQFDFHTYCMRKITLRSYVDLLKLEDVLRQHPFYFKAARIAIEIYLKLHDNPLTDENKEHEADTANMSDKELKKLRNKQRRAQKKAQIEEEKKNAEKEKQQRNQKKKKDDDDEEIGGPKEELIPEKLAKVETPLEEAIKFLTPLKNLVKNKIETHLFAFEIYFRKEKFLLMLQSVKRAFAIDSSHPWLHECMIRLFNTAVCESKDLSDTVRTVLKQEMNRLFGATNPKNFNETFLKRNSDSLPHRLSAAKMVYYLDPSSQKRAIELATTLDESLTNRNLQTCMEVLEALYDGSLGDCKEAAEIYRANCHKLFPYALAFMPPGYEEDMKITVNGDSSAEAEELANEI
In short, it runs like this: as §1

T2 sequence (Q13489 whole entry): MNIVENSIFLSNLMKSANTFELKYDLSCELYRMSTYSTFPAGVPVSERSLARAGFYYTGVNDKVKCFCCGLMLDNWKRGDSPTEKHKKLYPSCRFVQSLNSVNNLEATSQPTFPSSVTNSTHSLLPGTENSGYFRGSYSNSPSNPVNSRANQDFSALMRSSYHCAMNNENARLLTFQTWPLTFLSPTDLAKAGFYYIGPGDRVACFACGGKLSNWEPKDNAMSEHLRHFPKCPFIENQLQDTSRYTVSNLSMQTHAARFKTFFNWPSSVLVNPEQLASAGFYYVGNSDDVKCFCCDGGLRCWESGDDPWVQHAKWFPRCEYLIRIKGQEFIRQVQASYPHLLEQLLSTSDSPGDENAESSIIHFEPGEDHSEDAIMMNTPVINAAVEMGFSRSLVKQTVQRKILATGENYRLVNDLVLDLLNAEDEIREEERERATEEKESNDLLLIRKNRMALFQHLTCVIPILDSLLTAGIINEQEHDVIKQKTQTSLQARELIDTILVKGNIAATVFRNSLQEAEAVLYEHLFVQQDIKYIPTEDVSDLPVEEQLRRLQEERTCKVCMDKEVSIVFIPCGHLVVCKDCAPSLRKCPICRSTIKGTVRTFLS

For the molecule `O=C(CCl)Nc1cc(C(F)(F)F)cc(C(F)(F)F)c1` [KBO3], in assay [1] (uniprot P42765), the “100 Max” value turned out to be 3.45, the 100 ave was determined as 3.45, the “500 Max” value is −0.69 and the 500 ave was −0.69. In addition, in assay [2] (uniprot Q13489), the “100 Max” value amounted to 1.3, the 100 ave is recorded as −2.6, the “500 Max” value was 18.7 and the 500 ave amounted to 18.7. In assay [3] (uniprot Q9BXJ9), the “100 Max” value is given as −21.23, the 100 ave is reported as −31.6767, the “500 Max” value worked out at 14.66 and the 500 ave is 14.66.
Consider `COc1ccc2c(c1)CCCN2C(=O)CCl` [KB02], for which the Liganded result in assay [1] (ACAA2 Res# 382, uniprot P42765) is recorded as “YES”; in assay [2] (BIRC3 Res# 28, uniprot Q13489), “YES”; in assay [3] (NAA15 Res# 817, uniprot Q9BXJ9), “YES”.
